Source: US8541585B2, “N-acyl cyclic amine derivative or pharmaceutically acceptable salt thereof” (Dainippon Sumitomo Pharma Co., Ltd., priority 2010, dated 2013)

Legend:
[1] = biological target: human D2L receptor (Homo sapiens, UniProt P14416); test: Dopamine D2L receptor binding assay ([3H]-spiperone); conditions: 10 nM test drug; [3H]-spiperone 0.5 nM; human D2L receptor-expressing CHO cell membrane; read-out: BINDING INHIBITION RATE (%) D2L 10 nM
Experimental: (1) Dopamine D2L Receptor Binding Assay
D2L receptor binding assay was performed in reference to a method described by Hirose et al. (Japan. J. Pharmacol., 53, 321-329, 1990). After a reaction in a total volume of 200 μL of 50 mM Tris-HCl (pH=7.6) buffer solution containing 50 μL of [^3H]-spiperone (final concentration 0.5 nM), 1 μL of test drug in DMSO, and 149 μL of human D2L receptor-expressing CHO cell membrane sample, human D2L receptor binding activity of [^3H]-spiperone was measured. The reaction solution let stand for 60 minutes at room temperature, and then it was quickly added on a glass fiber filter plate (Multiscreen FB, Millipore inc.) coated with 0.3% polyethyleneimine (PEI) and filtered under reduced pressure. The glass fiber filter was washed with 200 μL of ice-cooled 50 mM Tris-HCl (pH=7.6) twice, repeatedly filtered under reduced pressure, and then transferred to a vial containing 4 mL of Ecoscint A (National Diagnostics inc.). The residual radioactivity on the glass fiber filter was measured by a liquid scintillation counter. Nonspecific binding was measured in the presence of 10 μM of spiperone, and [^3H]-spiperone binding inhibition rate in the presence of 10 nM of test drug was determined. The larger binding inhibition rate (%) means that test drug has the higher binding affinity for human D2L receptor.

[2] = biological target: T1, human 5-HT2A receptor (Homo sapiens, UniProt P28223); test: Serotonin 5-HT2A receptor binding assay ([3H]-ketanserin); conditions: [3H]-ketanserin 1 nM, human 5-HT2A receptor-expressing CHO cell membrane; for inhibition at 0.001 µM: 1 nM test drug, read-out: BINDING INHIBITION RATE (%) 5HT2A 1 nM; for inhibition at 0.01 µM: 10 nM test drug, read-out: BINDING INHIBITION RATE (%) 5HT2A 10 nM
T1 construct: expressed in transfected cells; host or cells: CHO cells (membrane preparation)
Experimental: (2) Serotonin 5-HT2A Receptor Binding Assay
5-HT2A receptor binding assay was performed in reference to a method described by Hirose et al. (Japan. J. Pharmacol., 53, 321-329, 1990). After a reaction in a total volume of 200 μL of 50 mM Tris-HCl (pH=7.6) buffer solution containing 50 μL of [^3H]-ketanserin (final concentration 1 nM), 1 μL of test drug in DMSO, and 149 μL of human 5-HT2A receptor-expressing CHO cell membrane sample, human 5-HT2A receptor binding activity of [^3H]-ketanserin was measured. The reaction solution let stand for 15 minutes at 37° C., and then it was quickly added on a glass fiber filter plate (Multiscreen FB, Millipore inc.) coated with 0.05% Brij 35 and filtered under reduced pressure. The glass fiber filter was washed with 200 μL of ice-cooled 50 mM Tris-HCl (pH=7.6) twice, repeatedly filtered under reduced pressure, and then transferred to a vial containing 4 mL of Ecoscint A (National Diagnostics inc.). The residual radioactivity on the glass fiber filter was measured by a liquid scintillation counter. Nonspecific binding was measured in the presence of 10 μM of MDL-100907, and [^3H]-ketanserin binding inhibition rate in the presence of 1 nM or 10 nM of test drug was determined.

[3] = biological target: T2, human 5-HT6 receptor (Homo sapiens, UniProt P50406); test: Serotonin 5-HT6 receptor binding assay ([3H]-clozapine); conditions: 100 nM test drug; [3H]-clozapine 2 nM; human 5-HT6 receptor-expressing CHO cell membrane; read-out: BINDING INHIBITION RATE (%) 5HT6 100 nM
T2 construct: expressed in transfected cells; host or cells: CHO cells (membrane preparation)
Experimental: (3) Serotonin 5-HT6 Receptor Binding Assay
After a reaction in a total volume of 200 μL of 50 mM Tris-HCl (pH=7.6), 4 mM CaCl2, and 0.5 mM EDTA buffer solution containing 50 μL of [^3H]-clozapine (final concentration 2 nM), 1 μL of test drug in DMSO, and 149 μL of human 5-HT6 receptor-expressing CHO cell membrane sample, human 5-HT6 receptor binding activity of [^3H]-clozapine was measured. The reaction solution let stand for 40 minutes at room temperature, and then it was quickly added on a glass fiber filter plate (Multiscreen FB, Millipore inc.) coated with 0.3% polyethyleneimine (PEI) and filtered under reduced pressure. The glass fiber filter was washed with 200 μL of ice-cooled 50 mM Tris-HCl (pH=7.6) twice, repeatedly filtered under reduced pressure, and then transferred to a vial containing 4 mL of Ecoscint A (National Diagnostics inc.). The residual radioactivity on the glass fiber filter was measured by a liquid scintillation counter. Nonspecific binding was measured in the presence of 10 μM of SB-258585, and [^3H]-clozapine binding inhibition rate in the presence of 100 nM of test drug was determined.

[4] = biological target: T3, human α1D receptor (Homo sapiens, UniProt P25100); test: Adrenaline α1D receptor binding assay ([3H]-prazosin); conditions: 100 nM test drug; [3H]-prazosin 0.6 nM; human α1D receptor-expressing CHO cell membrane; read-out: BINDING INHIBITION RATE (%) α1D 100 nM
T3 construct: expressed in transfected cells; host or cells: CHO cells (membrane preparation)
T3 sequence (P25100 1-572): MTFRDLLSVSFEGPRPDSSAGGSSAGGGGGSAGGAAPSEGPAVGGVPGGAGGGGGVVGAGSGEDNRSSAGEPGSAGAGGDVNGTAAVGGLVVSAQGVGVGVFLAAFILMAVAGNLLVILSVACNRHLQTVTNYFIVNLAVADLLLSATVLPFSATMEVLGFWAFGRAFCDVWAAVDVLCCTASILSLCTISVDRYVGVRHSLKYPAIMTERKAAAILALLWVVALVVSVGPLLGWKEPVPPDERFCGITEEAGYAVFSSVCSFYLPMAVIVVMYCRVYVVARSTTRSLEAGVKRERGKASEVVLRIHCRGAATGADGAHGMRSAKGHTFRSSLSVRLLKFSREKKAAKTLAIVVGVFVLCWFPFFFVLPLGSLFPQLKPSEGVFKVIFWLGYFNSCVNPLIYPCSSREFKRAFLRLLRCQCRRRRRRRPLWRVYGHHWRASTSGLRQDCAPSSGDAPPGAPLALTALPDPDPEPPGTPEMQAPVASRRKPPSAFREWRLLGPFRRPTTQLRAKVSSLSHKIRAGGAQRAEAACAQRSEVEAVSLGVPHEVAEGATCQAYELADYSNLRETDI
Experimental: (4) Adrenaline α1D Receptor Binding Assay
After a reaction in a total volume of 200 μL of 50 mM Tris-HCl (pH=7.6) buffer solution containing 50 μL of [^3H]-prazosin (final concentration 0.6 nM), 1 μL of test drug in DMSO, and 149 μL of human α1D receptor-expressing CHO cell membrane sample, human α1D receptor binding activity of [^3H]-prazosin was measured. The reaction solution let stand for 30 minutes at room temperature, and then it was quickly added on a glass fiber filter plate (Multiscreen FB, Millipore inc.) coated with 0.3% polyethyleneimine (PEI) and filtered under reduced pressure. The glass fiber filter was washed with 200 μL of ice-cooled 50 mM Tris-HCl (pH=7.6) twice, repeatedly filtered under reduced pressure, and then transferred to a vial containing 4 mL of Ecoscint A (National Diagnostics inc.). The residual radioactivity on the glass fiber filter was measured by a liquid scintillation counter. Nonspecific binding was measured in the presence of 1 μM of prazosin, and [^3H]-prazosin binding inhibition rate in the presence of 100 nM of test drug was determined.

human D2L receptor, sequence (P14416 whole entry): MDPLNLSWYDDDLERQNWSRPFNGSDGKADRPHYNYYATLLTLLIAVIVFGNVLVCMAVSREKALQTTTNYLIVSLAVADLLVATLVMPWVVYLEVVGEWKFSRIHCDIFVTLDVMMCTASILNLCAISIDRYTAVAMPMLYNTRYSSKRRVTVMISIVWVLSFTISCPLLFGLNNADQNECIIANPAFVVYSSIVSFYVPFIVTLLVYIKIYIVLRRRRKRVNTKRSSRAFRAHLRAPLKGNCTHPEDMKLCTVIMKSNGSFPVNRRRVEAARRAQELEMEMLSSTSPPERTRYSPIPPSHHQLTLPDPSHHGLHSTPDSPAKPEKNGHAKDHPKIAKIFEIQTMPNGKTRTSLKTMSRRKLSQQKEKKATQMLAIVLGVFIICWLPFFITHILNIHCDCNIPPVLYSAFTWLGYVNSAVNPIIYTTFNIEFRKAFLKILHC
T2 sequence (P50406 whole entry): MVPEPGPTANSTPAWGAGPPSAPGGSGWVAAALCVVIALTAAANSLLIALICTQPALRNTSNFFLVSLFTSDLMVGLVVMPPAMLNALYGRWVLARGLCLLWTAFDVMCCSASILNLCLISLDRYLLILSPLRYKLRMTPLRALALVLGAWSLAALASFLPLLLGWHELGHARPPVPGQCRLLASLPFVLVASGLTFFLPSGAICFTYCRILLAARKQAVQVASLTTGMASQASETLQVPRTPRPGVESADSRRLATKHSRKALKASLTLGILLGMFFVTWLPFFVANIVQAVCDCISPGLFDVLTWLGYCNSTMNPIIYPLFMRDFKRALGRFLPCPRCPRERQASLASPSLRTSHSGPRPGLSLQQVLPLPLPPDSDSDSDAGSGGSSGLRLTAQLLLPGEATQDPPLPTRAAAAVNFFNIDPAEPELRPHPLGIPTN
T1 sequence (P28223 whole entry): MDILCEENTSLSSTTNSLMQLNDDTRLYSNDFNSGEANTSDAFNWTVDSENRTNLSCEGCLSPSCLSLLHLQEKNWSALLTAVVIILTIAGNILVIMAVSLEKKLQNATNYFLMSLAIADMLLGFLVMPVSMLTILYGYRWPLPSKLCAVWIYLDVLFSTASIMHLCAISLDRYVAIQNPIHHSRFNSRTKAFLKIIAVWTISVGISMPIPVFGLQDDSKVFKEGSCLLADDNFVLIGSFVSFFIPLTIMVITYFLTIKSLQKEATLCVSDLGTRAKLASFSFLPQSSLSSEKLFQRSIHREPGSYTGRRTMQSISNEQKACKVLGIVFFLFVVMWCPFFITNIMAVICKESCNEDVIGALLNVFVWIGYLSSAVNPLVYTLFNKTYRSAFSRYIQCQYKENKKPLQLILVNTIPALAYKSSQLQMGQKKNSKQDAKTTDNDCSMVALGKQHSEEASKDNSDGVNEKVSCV

Compound Cc1ccc2cc(C(=O)N3CCC[C@H]3CCN3CCN(c4nccc5ccccc45)CC3)[nH]c2c1 [Example 11] has an inhibition at 0.01 µM [1] of 69%, an inhibition at 0.001 µM [2] of 64% and an inhibition at 0.1 µM [3] of 86%. It also gave an inhibition at 0.1 µM [4] of 5%.
Cc1ccc2cc(C(=O)N3CCC[C@H]3CCN3CCC(N4CCCc5ccccc54)CC3)[nH]c2c1 [Example 12] gave an inhibition at 0.01 µM [1] of 59%, an inhibition at 0.001 µM [2] of 28% and an inhibition at 0.1 µM [3] of 84%. The inhibition at 0.1 µM [4] was 43%.
In the case of Cc1ccc2cc(C(=O)N3CCC[C@H]3CCN3CCN(c4nsc5cc(F)ccc45)CC3)[nH]c2c1 [Example 13], the inhibition at 0.01 µM [1] is reported as 72%, the inhibition at 0.001 µM [2] is reported as 34% and the inhibition at 0.1 µM [3] is reported as 93%. For the same compound, the inhibition at 0.1 µM [4] was 60%.
COc1ccc2cc(C(=O)N3CCOC[C@H]3CCN3CCC(c4noc5cc(F)ccc45)CC3)[nH]c2c1 [Example 15] showed an inhibition at 0.01 µM [1] of 84%, an inhibition at 0.001 µM [2] of 76% and an inhibition at 0.01 µM [2] of 94%. The inhibition at 0.1 µM [3] was 79% and the inhibition at 0.1 µM [4] was 74%.
O=C(/C=C/c1ccc2c(c1)OCO2)N1CCC[C@@H](CN2CCC(c3noc4cc(F)ccc34)CC2)C1 [Example 16] showed an inhibition at 0.01 µM [1] of 97%, an inhibition at 0.01 µM [2] of 93% and an inhibition at 0.1 µM [3] of 87%. For the same compound, the inhibition at 0.1 µM [4] was 91%.
O=C(/C=C/c1ccc2c(c1)OCO2)N1CCC[C@H](CN2CCC(c3noc4cc(F)ccc34)CC2)C1 [Example 17] was tested, and the inhibition at 0.01 µM [1] was 84%, the inhibition at 0.01 µM [2] was 99% and the inhibition at 0.1 µM [3] was 93%. For the same compound, the inhibition at 0.1 µM [4] was 92%.
O=C(/C=C/c1ccc2c(c1)OCO2)N1CC[C@H]1CCN1CCC(c2noc3cc(F)ccc23)CC1 [Example 18] showed an inhibition at 0.01 µM [1] of 54%, an inhibition at 0.01 µM [2] of 100% and an inhibition at 0.1 µM [3] of 74%. For the same compound, the inhibition at 0.1 µM [4] was 102%.
In the case of Cc1ccc2cc(C(=O)N3CCC[C@H]3CCN3CCN(c4noc5cc(F)ccc45)CC3)[nH]c2c1 [Example 21], the inhibition at 0.01 µM [1] is reported as 73%, the inhibition at 0.001 µM [2] is reported as 41% and the inhibition at 0.1 µM [3] is reported as 94%. For the same compound, the inhibition at 0.1 µM [4] was 55%.
Compound Cc1ccc2cc(C(=O)N3CCCC[C@H]3CCN3CCN(c4n[nH]c5ccccc45)CC3)[nH]c2c1 [Example 23] has an inhibition at 0.01 µM [1] of 62%, an inhibition at 0.001 µM [2] of 34% and an inhibition at 0.1 µM [3] of 75%. The inhibition at 0.1 µM [4] was 34%.
